In ChEMBL document CHEMBL1145712, “Two new lignans with activity against influenza virus from the medicinal plant Rhinacanthus nasutus” (J Nat Prod, 1997):
Values after ≈ are worked out from the molar mass of the structure shown.

Assays:
[1] = Selectivity index, ratio of IC50 for MDCK cells to EC50 for influenza A virus NWS33; assay type: toxicity, cell-based; details: dog, read-out: Ratio IC50/EC50
[2] = system: MDCK; test: Cytotoxicity against MDCK cells by neutral red assay; assay type: cell-based; details: Canis lupus familiaris
[3] = system: Influenza A virus; test: Antiviral activity against influenza A virus NWS33 in MDCK cells assessed as inhibition of viral cytopathic effect by neutral red assay; assay type: functional, organism-based
[4] = system: Influenza A virus; test: Antiviral activity against influenza A virus NJH1N1 in MDCK cells by hemadsorption-inhibition assay; assay type: functional, organism-based
[5] = Selectivity index, ratio of IC50 for MDCK cells to EC50 for influenza A virus NJH1N1; assay type: toxicity, cell-based; details: dog, read-out: Ratio IC50/EC50
[6] = system: Vero; test: Cytotoxicity against african green monkey Vero cells by MTT assay; assay type: cell-based; details: Chlorocebus sabaeus
[7] = Selectivity index, ratio of IC50 for african green monkey Vero cells to EC50 for HSV2 MS
[8] = system: Human alphaherpesvirus 2; test: Antiviral activity against HSV2 MS in african green monkey Vero cells by viral cytopathic effect assay; assay type: functional, organism-based; details: Human alphaherpesvirus 2, MS

SMILES	selectivity ratio [1]	IC50 [2] [µg/mL]	EC50 [3] [µg/mL]	EC50 [4] [µg/mL]	selectivity ratio [5]	IC50 [6] [µg/mL]	Ratio IC50/EC50 [7]	EC50 [8] [µg/mL]
NC(=O)c1ncn([C@@H]2O[C@H](CO)[C@@H](O)[C@H]2O)n1 [RIBAVIRIN]	> 59	> 200	3.7 (≈ 15.2 µM)					
COC(=O)C(Cc1ccc2c(c1)OCO2)C(Cc1cc(OC)c2c(c1)OCO2)C(=O)OC (stereo unspecified) [RHINACANTHIN F]	6.8	17 (≈ 38.3 µM)	3.1 (≈ 6.98 µM)	< 0.94	> 18	4.4 (≈ 9.9 µM)		
COC(=O)/C(=C/c1ccc2c(c1)OCO2)C(Cc1cc(OC)c2c(c1)OCO2)C(=O)OC (stereo unspecified) [RHINACANTHIN E]	15	44 (≈ 99.5 µM)	7.4 (≈ 16.7 µM)	1.7 (≈ 3.84 µM)	26	17 (≈ 38.4 µM)		
Nc1nc2c(ncn2COCCO)c(=O)[nH]1 [ACYCLOVIR]						> 100	>60	1.5 (≈ 6.66 µM)
NC12CC3CC(CC(C3)C1)C2 [AMANTADINE]		56 (≈ 370 µM)		0.054 (≈ 0.357 µM)	1000			
